Numbered stars: 1 amine (or outer) side, 2 acyl side, 3 side chain; on linkers, the order of the positions; unused ones are H or OH. Bridge positions count the residues as written; N and C are the ends. Square brackets hold non-standard residues; d marks the D form. Peptide text beside a SMILES is read from it. * marks the point of attachment. hPhe(3-Cl-4-CF3) = N[C@@H](CCc1ccc(C(F)(F)F)c(Cl)c1)C(=O)O; NMePhe(4-Me) = CN[C@@H](Cc1ccc(C)cc1)C(=O)O; NMedβ3hAla = C[C@H](CC(=O)[*:2])N(C)[*:1]; NMeNva(5,5-F2) = CN[C@@H](CCC(F)F)C(=O)O; NMeGly(cPent) = CN[C@H](C(=O)O)C1CCCC1; NMe3Pal = CN[C@@H](Cc1cccnc1)C(=O)O; NMeCha = CN[C@@H](CC1CCCCC1)C(=O)O; NMeChg = CN[C@H](C(=O)O)C1CCCCC1; NMeD = CN[C@@H](CC(=O)O)C(=O)O; NMeL = CN[C@@H](CC(C)C)C(=O)O; NMeV = CN[C@H](C(=O)O)C(C)C; d(β3hA) = C[C@@H](N)CC(=O)O; NMeAbu = CC[C@H](NC)C(=O)O; Morpholide = C1CN(*)CCO1; NMeA = CN[C@@H](C)C(=O)O; Piperidide = C1CCN(*)CC1; Ac5c = NC1(C(=O)O)CCCC1; Aze = O=C(O)[C@@H]1CCN1; Abu = CC[C@H](N)C(=O)O; Sar = CNCC(=O)O
Tests used:
[1] = system: Human pancreatic cancer cell line AsPC-1 (G12D mutation Kras); test: AsPC-1 cell growth inhibition (AsPC-1 CGI); format: cell-based; settings: read-out: AsPC-1 cell growth inhibition, 50% growth inhibitory concentration (IC50 value); 96 hours, CellTiter-Glo, values classified in ranges
Description: Test compounds were serially dilated with dimethyl sulfoxide, and 200 nL was then dispensed to a U-bottom 96-well plate using Labcyte Echo. […] The cell suspension was dispensed to a. plate containing a test compound at 100 μL per well and incubated at 37° C. in a 5% carbon dioxide gas incubator. 96 hours later, 80 μL of CellTiter-Glo (Promega) was added to each well and fluorescence was measured.

[2] = target: protein-protein interaction between Kras and SOS1 (biotin-tagged human Kras loaded with GDP, His-tagged human SOS1) (Homo sapiens (Human), UniProt P01116, G12D); test: Protein-protein interaction inhibition between Kras and SOS1 (KrasG12D-SOS PPI) using AlphaScreen; format: biochemical; settings: AlphaScreen; biotin-tagged human Kras loaded with GDP, His-tagged human SOS1; read-out: KRAS G12D-SOS PPI IC50;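 further: kras produced in E. coli, Ni-coupled donor beads and streptavidin acceptor beads, excitation 680 nm with emission detected at 520–620 nm via singlet oxygen transfer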

Row | Compound | IC50 [1] | IC50 [2]
1 | CC[C@H](C)[C@@H]1NC(=O)[C@H](CC(C)C)N(C)C(=O)C[C@@H](C(=O)N2CCOCC2)N(C)C(=O)[C@H](C2CCCCC2)N(C)C(=O)C2(CCCC2)NC(=O)[C@H](Cc2cccnc2)N(C)C(=O)[C@H](CCc2ccc(C(F)(F)F)c(Cl)c2)NC(=O)CN(C)C(=O)[C@H](CC2CCCCC2)N(C)C(=O)CN(C)C(=O)CN(C)C1=O [Compound 1745] ([NMeL]I[Sar][Sar][NMeCha][Sar][hPhe(3-Cl-4-CF3)][NMe3Pal][Ac5c][NMeChg][NMeD]-Morpholide; lactam N-11) | > 500 nM | 1.3 nM
2 | CC[C@H](C)[C@@H]1NC(=O)[C@H](CC(C)C)N(C)C(=O)C[C@@H](C)NC(=O)[C@H](C2CCCCC2)N(C)C(=O)C2(CCCC2)NC(=O)[C@@H]2CCCN2C(=O)[C@H](CCc2ccc(C(F)(F)F)c(Cl)c2)NC(=O)CN(C)C(=O)[C@H](Cc2ccc(C)cc2)N(C)C(=O)[C@@H]2CCN2C(=O)[C@H](C)N(C)C1=O [Compound 1747] (cyclo([Ac5c][NMeChg][d(β3hA)][NMeL]I[NMeA][Aze][NMePhe(4-Me)][Sar][hPhe(3-Cl-4-CF3)]P)) | > 500 nM | 16 nM
3 | CC[C@H](C)[C@@H]1NC(=O)[C@H](CC(C)C)N(C)C(=O)C[C@@H](C)N(C)C(=O)[C@H](C2CCCC2)N(C)C(=O)C2(CCCC2)NC(=O)[C@@H]2CCCN2C(=O)[C@H](CCc2ccc(C(F)(F)F)c(Cl)c2)NC(=O)CN(C)C(=O)[C@H](Cc2ccc(C)cc2)N(C)C(=O)[C@@H]2CCN2C(=O)[C@H](C)N(C)C1=O [Compound 1750] (cyclo([Ac5c][NMeGly(cPent)][NMedβ3hAla][NMeL]I[NMeA][Aze][NMePhe(4-Me)][Sar][hPhe(3-Cl-4-CF3)]P)) | ≤ 20 nM | 1.3 nM
4 | CC[C@H](C)[C@@H]1NC(=O)[C@H](CC(C)C)N(C)C(=O)C[C@@H](C(=O)N2CCCCC2)N(C)C(=O)[C@H](C(C)C)N(C)C(=O)C2(CCCC2)NC(=O)[C@@H]2CCCN2C(=O)[C@H](CCc2ccc(C(F)(F)F)c(Cl)c2)NC(=O)CN(C)C(=O)[C@H](CC)N(C)C(=O)[C@@H]2CCN2C(=O)[C@H](C)N(C)C1=O [Compound 1752] ([NMeL]I[NMeA][Aze][NMeAbu][Sar][hPhe(3-Cl-4-CF3)]P[Ac5c][NMeV][NMeD]-Piperidide; lactam N-11) | > 500 nM | 17 nM
5 | CC[C@@H]1NC(=O)[C@H](CC(C)C)N(C)C(=O)C[C@@H](C(=O)N2CCCCC2)N(C)C(=O)[C@H](C(C)C)N(C)C(=O)C2(CCCC2)NC(=O)[C@@H]2CCCN2C(=O)[C@H](CCc2ccc(C(F)(F)F)c(Cl)c2)NC(=O)CN(C)C(=O)[C@H](CC2CCCCC2)N(C)C(=O)[C@@H]2CCN2C(=O)[C@H](C)N(C)C1=O [Compound 1760] ([NMeL][Abu][NMeA][Aze][NMeCha][Sar][hPhe(3-Cl-4-CF3)]P[Ac5c][NMeV][NMeD]-Piperidide; lactam N-11) | > 500 nM | 32 nM
6 | CC[C@H](C)[C@@H]1NC(=O)[C@H](CC(C)C)N(C)C(=O)C[C@@H](C(=O)N2CCCCC2)N(C)C(=O)[C@H](C(C)C)N(C)C(=O)C2(CCCC2)NC(=O)[C@@H]2CCCN2C(=O)[C@H](CCc2ccc(C(F)(F)F)c(Cl)c2)NC(=O)CN(C)C(=O)[C@H](CCC(F)F)N(C)C(=O)[C@@H]2CCN2C(=O)[C@H](C)N(C)C1=O [Compound 1769] ([NMeL]I[NMeA][Aze][NMeNva(5,5-F2)][Sar][hPhe(3-Cl-4-CF3)]P[Ac5c][NMeV][NMeD]-Piperidide; lactam N-11) | > 500 nM | 11 nM
7 | CC[C@H](C)[C@@H]1NC(=O)[C@H](CC(C)C)N(C)C(=O)C[C@@H](C(=O)N2CCCCC2)N(C)C(=O)[C@H](C2CCCC2)N(C)C(=O)C2(CCCC2)NC(=O)[C@@H]2CCCN2C(=O)[C@H](CCc2ccc(C(F)(F)F)c(Cl)c2)NC(=O)CN(C)C(=O)[C@H](Cc2ccc(C)cc2)N(C)C(=O)[C@@H]2CCN2C(=O)[C@H](C)N(C)C1=O [Compound 1772] ([NMeL]I[NMeA][Aze][NMePhe(4-Me)][Sar][hPhe(3-Cl-4-CF3)]P[Ac5c][NMeGly(cPent)][NMeD]-Piperidide; lactam N-11) | ≤ 20 nM | 0.75 nM
